Assay results taken from publication PMC11860126, “X-Ray Irradiation Induces Oxidative Stress and Upregulates Intestinal Nrf2-Mrp2 Pathway, Leading to Decreased Intestinal Absorption of Valsartan” (Pharmaceutics, 2025).

System: Caco-2 cells
Test: Caco-2 cell uptake assay of valsartan with Mrp2/P-gp inhibitors and irradiation
Details: valsartan 10 μM, 5 Gy X-ray 24 h before

`CCCCC(=O)N(Cc1ccc(-c2ccccc2-c2nnn[nH]2)cc1)[C@H](C(=O)O)C(C)C` [valsartan, Valsartan] was tested, and the “valsartan uptake in Caco-2 cells, IR group compared with control group” value (1 h, p < 0.05) was “significant reduction” and the “valsartan uptake in Caco-2 cells, IR group compared with control group” value (2 h) was “no significant difference”.
